Legend:
PDE9 = biological target: T1, PDE9 (Homo sapiens, UniProt O76083); test: PDE9-inhibiting activity (SPA, 3H-cGMP degradation); format: biochemical
T1 construct: made in house
Description: The PDE9 used in the present experiment was expressed/purified by the method as in, for example, Guipponi et al., and Fisher et., al. (Fisher, D. A., et al., J. Biol. Chem., 273: pp. 15559-15564 (1998), Guipponi, M., et al., Hum. Genet., 103: pp. 386-392 (1998)).
The PDE9-inhibiting activity was measured by the following method. That is, to a buffer solution containing tris(hydroxymethyl)aminomethane-hydrochloric acid (40 mM, pH 8.0), magnesium chloride (5 mM), and 2-mercaptoethanol (4 mM) were added cGMP (1 μM) and ^3H-cGMP (0.33 μCi/ml) to give a substrate buffer solution. A test substance solution and an enzyme solution which had been adjusted to an optimal concentration were added thereto to perform a reaction at 30° C. The enzyme reaction was stopped by the addition of Scintillation Proximity Assay (SPA) Beads (GE Healthcare, UK) containing 5 mM 3-isobutyl-1-methylxanthine (IBMX). For the enzyme activity, the amount of 5′-GMP, which is a reaction degradation product bound to SPA beads, was measured with a TopCount microplate reader (Hewlett Packard, USA).
The inhibitory rate was calculated by taking the radioactivity of the control containing no test substance as (A), taking the radioactivity of the blank containing no enzyme as (B), and taking the radioactivity of the test substance as (C), and using the following equation. Inhibitory rate=100−{(C)−(B)/(A)−(B)}×100(%)

T1 sequence (O76083 whole entry): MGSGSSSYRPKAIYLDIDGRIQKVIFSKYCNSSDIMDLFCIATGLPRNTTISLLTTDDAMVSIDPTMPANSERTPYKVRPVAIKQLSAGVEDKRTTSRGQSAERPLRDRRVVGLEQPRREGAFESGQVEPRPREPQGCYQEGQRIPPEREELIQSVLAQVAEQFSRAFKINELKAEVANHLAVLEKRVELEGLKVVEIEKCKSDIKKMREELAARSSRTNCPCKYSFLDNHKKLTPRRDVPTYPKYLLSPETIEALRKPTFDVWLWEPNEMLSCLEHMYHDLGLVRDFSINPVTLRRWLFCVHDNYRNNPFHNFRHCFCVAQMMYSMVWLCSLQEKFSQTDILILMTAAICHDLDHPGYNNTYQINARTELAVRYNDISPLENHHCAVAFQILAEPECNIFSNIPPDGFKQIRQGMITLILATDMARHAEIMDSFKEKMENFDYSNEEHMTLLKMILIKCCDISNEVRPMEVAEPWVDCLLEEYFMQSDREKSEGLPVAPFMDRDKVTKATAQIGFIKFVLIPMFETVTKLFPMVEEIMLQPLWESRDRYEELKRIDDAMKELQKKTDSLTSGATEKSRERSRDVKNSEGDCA

IC50 (PDE9)	melting point	Compound
3.6 nM	257 °C (dec.)	COCc1cc2c(cc1C(=O)N1CCc3cc(Cl)ccc31)[nH]c(=O)c1nnc(CC3CC3)n12.Cl [Example 522]
0.9 nM	234 to 237 °C	Cc1cc2c(cc1C(=O)N1CCc3cc(Cl)ccc31)[nH]c(=O)c1cnc([C@H]3CC[C@H](C(N)=O)CC3)n12 [Example 528]

— patent US8674096B2, “Substituted imidazo[1,5-a]quinoxalin-4-ones as phosphodiesterase 9 inhibitors” (priority 2009, dated 2014)
